4 compounds from ChEMBL document CHEMBL4715897, “A new 1-nitro-9-aminoacridine derivative targeting yeast topoisomerase II able to overcome fluconazole-resistance” (2021) can be followed below.

SMILES strings stand for the structures. Values after ≈ are worked out from the molar mass of the structure shown. Active and inactive are the calls of the source. Where only a bound is given, the exact number is not on record here.

One experiment concerns Trichophyton rubrum. In words: Antifungal activity against Trichophyton rubrum assessed as reduction in microbial growth after 48 hrs by microdilution method. The class given is functional. In general terms: Broth dilution looks for growth in wells or tubes with falling amounts of substance.
The test system of experiment [1] is Candida albicans. In words: Antifungal activity against Candida albicans ATCC 10231 assessed as reduction in microbial growth. The class given is functional.
The subject of experiment [2] is Nakaseomyces glabratus. In words: Antifungal activity against Candida glabrata ATCC 90030 assessed as reduction in microbial growth. The class given is functional.
The subject of experiment [3] is Pichia kudriavzevii. As to the kind of experiment: Antifungal activity against Candida krusei ATCC 6258 assessed as reduction in microbial growth. Type of experiment: functional.
For experiment [4], the system named is Candida parapsilosis. In words: Antifungal activity against Candida parapsilosis ATCC 22019 assessed as reduction in microbial growth. Type of experiment: functional. Particulars: Lodderomyces parapsilosis.
The subject of experiment [5] is Saccharomyces cerevisiae. As to the kind of experiment: Antifungal activity against Saccharomyces cerevisiae ATCC 9763 assessed as reduction in microbial growth. The class given is functional.
Experiment [6] concerns Candida albicans. As to the kind of experiment: Fungicidal activity against Candida albicans ATCC 10231. The class given is functional.
In experiment [7] the test system is Nakaseomyces glabratus. In words: Fungicidal activity against Candida glabrata DSM 11226. The class given is functional.
Experiment [8] concerns Pichia kudriavzevii. In words: Fungicidal activity against Candida krusei DSM 6128. Type of experiment: functional.
Experiment [9] has as its system Candida parapsilosis. In words: Fungicidal activity against Candida parapsilosis DSM 5784. The following applies: Lodderomyces parapsilosis. Type of experiment: functional.
Experiment [10] deals with Saccharomyces cerevisiae. In words: Fungicidal activity against Saccharomyces cerevisiae ATCC 9763. The class given is functional.
Experiment [11] is described as follows: Ratio of MFC for fungicidal activity against Saccharomyces cerevisiae ATCC 9763 to MIC for antifungal activity against Saccharomyces cerevisiae ATCC 9763. The class given is functional.
The subject of experiment [12] is Candida albicans. In words: Fungicidal activity against Candida albicans ATCC 10231 assessed as bacterial killing at concentration of 2 MIC after 5 hrs relative to control. The class given is functional.
The subject of experiment [13] is Candida albicans. In words: Fungicidal activity against Candida albicans ATCC 10231 assessed as bacterial killing at concentration of MIC after 5 hrs relative to control. Type of experiment: functional.
The test system of experiment [14] is Candida albicans. In words: Fungicidal activity against Candida albicans ATCC 10231 assessed as bacterial killing at concentration of 0.25 MIC after 5 hrs relative to control. The class given is functional.
Experiment [15] relates to Candida albicans. In words: Fungicidal activity against Candida albicans ATCC 10231 assessed as bacterial killing at concentration of 4 MIC after 1 hrs relative to control. The class given is functional.
Experiment [16] deals with Candida albicans. In words: Fungicidal activity against Candida albicans ATCC 10231 assessed as bacterial killing at concentration of 2 MIC after 1 hrs relative to control. Type of experiment: functional.
Experiment [17] deals with Candida albicans. As to the kind of experiment: Growth inhibition of Candida albicans ATCC 10231 assessed as reduction in yeast to mycelium formation by measuring reduction in hyphal growth at 0.25 MIC after 3 hrs by light microscopic method relative to control. The class given is functional.
Experiment [18] concerns Candida albicans. In words: Antibiofilm activity against Candida albicans ATCC 10231 at concentration of 0.25 MIC by XTT assay. The class given is functional, organism-based. Background: Tetrazolium assays rely on reduction of a dye to a coloured formazan, in cell work by metabolically active cells.
Experiment [19] deals with Candida albicans. As to the kind of experiment: Antifungal activity against fluconazole-sensitive Candida albicans B3 assessed as reduction in microbial growth. The class given is functional.
The subject of experiment [20] is Candida albicans. As to the kind of experiment: Antifungal activity against fluconazole-resistant Candida albicans B4 assessed as reduction in microbial growth. The class given is functional.
Experiment [21] deals with Candida albicans. In words: Antifungal activity against fluconazole-sensitive Candida albicans Gu4 assessed as reduction in microbial growth. The class given is functional.
Experiment [22] has as its system Candida albicans. As to the kind of experiment: Antifungal activity against fluconazole-resistant Candida albicans Gu5 assessed as reduction in microbial growth. Type of experiment: functional.
For experiment [23], the system named is Candida albicans. In words: Antifungal activity against fluconazole-sensitive Candida albicans F2 assessed as reduction in microbial growth. The class given is functional.
Experiment [24] deals with Candida albicans. As to the kind of experiment: Antifungal activity against fluconazole-resistant Candida albicans F5 assessed as reduction in microbial growth. The class given is functional.
Another experiment deals with Escherichia coli. As to the kind of experiment: Antibacterial activity against Escherichia coli ATCC 10536 assessed as reduction in microbial growth incubated for 48 hrs by photometric method. The class given is functional.
The subject of the next experiment is Staphylococcus aureus. As to the kind of experiment: Antibacterial activity against Staphylococcus aureus ATCC 9144 assessed as reduction in microbial growth incubated for 48 hrs by photometric method. The class given is functional.
The subject of experiment [25] is Candida albicans. In words: Antifungal activity against Candida albicans CNCM 1180-79 assessed as reduction in microbial growth incubated for 72 hrs by photometric method. The class given is functional.
Experiment [26] deals with Candida albicans. As to the kind of experiment: Fungicidal activity against Candida albicans ATCC 10231 assessed as bacterial killing after 5 hrs. The class given is functional, organism-based.
The test system of experiment [27] is Candida albicans. As to the kind of experiment: Fungicidal activity against Candida albicans ATCC 10231 assessed as bacterial killing at concentration of 4 MIC after 5 hrs relative to control. The class given is functional.
The test system of experiment [28] is Candida albicans. In words: Fungicidal activity against Candida albicans ATCC 10231 assessed as bacterial killing at concentration of 0.5 MIC after 5 hrs relative to control. The class given is functional.
Experiment [29] concerns Candida albicans. As to the kind of experiment: Fungicidal activity against Candida albicans ATCC 10231 assessed as bacterial killing at concentration of 0.25 to 4 MIC after 1 hrs relative to control. The class given is functional.
In experiment [30] the test system is Candida albicans. As to the kind of experiment: Growth inhibition of Candida albicans ATCC 10231 assessed as reduction in yeast to mycelium formation by measuring reduction in hyphal growth at concentration of 0.25 MIC after 3 hrs in G1cNAc medium by light microscopic method relative to control. The class given is functional, organism-based.
Experiment [31] deals with Candida albicans. In words: Growth inhibition of Candida albicans ATCC 10231 assessed as reduction in yeast to mycelium formation by measuring reduction in hyphal growth at concentration of 0.25 MIC after 3 hrs in YPG medium by light microscopic method relative to control. Type of experiment: functional, organism-based.
In experiment [32] the test system is Saccharomyces cerevisiae. In words: Inhibition of Saccharomyces cerevisiae DNA topoisomerase 2 assessed as decrease in relaxation of supercoiled DNA using supercoiled pBR322 plasmid DNA at 1 to 200 uM gel electrophoresis method. The following applies: dose 1-200 µM.
Experiment [33] has as its system Candida albicans. As to the kind of experiment: Antibiofilm activity against Candida albicans at 256 ug/ml relative to control. The class given is functional.

As for `O=c1c2cc(O)c(O)c(O)c2[nH]c2cc(O)cc(O)c12`, the MIC (in general, the smallest concentration in the dilution series that meets the test's criterion for growth inhibition) in the experiment on Trichophyton rubrum turned out to be 15.6 µg/mL.

For the compound `C[C@@H]1[C@H](O)[C@@H](C)/C=C/C=C/C=C/C=C/C=C/C=C/C=C/[C@H](O[C@@H]2O[C@H](C)[C@@H](O)[C@H](N)[C@@H]2O)C[C@@H]2O[C@](O)(C[C@@H](O)C[C@@H](O)[C@H](O)CC[C@@H](O)C[C@@H](O)CC(=O)O[C@H]1C)C[C@H](O)[C@H]2C(=O)O` [AMPHOTERICIN B], the MIC90 – broadly, the lowest concentration that inhibits either 90% of growth or 90% of the strains tested, depending on the study – with Candida albicans [1] is 0.5 µg/mL; in the experiment on Nakaseomyces glabratus [2] it was 1 µg/mL; in the experiment with Pichia kudriavzevii [3], 1 µg/mL; in the experiment on Candida parapsilosis [4], 1 µg/mL; in the experiment with Saccharomyces cerevisiae [5] it was 0.5 µg/mL. Further, the MFC against Candida albicans [6], against Nakaseomyces glabratus [7], in the experiment on Pichia kudriavzevii [8], in the experiment with Candida parapsilosis [9] and in the experiment with Saccharomyces cerevisiae [10] was 2 µg/mL (≈ 2.16 µM) in each case. The Ratio result in experiment [11] is “>=1”. Also, the Activity with Candida albicans [12] is reported as 100%; with Candida albicans [13], 100%; in the experiment on Candida albicans [14] it was 70%; in the experiment with Candida albicans [15], 100%; with Candida albicans [16], 100%. In the experiment on Candida albicans [17], the “growth inhibition (GI)” value is listed as 100%. Also, the result in the experiment on Candida albicans [18] was Active.

In the case of `Cc1ccc([N+](=O)[O-])c2c(NCCO)c3ccccc3nc12`, the MIC90 in the experiment on Candida albicans [1] was 1 µg/mL; in the experiment on Nakaseomyces glabratus [2], 8 µg/mL; in the experiment on Pichia kudriavzevii [3] it was 8 µg/mL; in the experiment on Candida parapsilosis [4] it was 64 µg/mL; in the experiment on Saccharomyces cerevisiae [5], 0.5 µg/mL; with Candida albicans [19], 4 µg/mL. In addition, the MIC90 in the experiment on Candida albicans [20] was more than 64 µg/mL; with Candida albicans [21], 4 µg/mL; in the experiment with Candida albicans [22] it was 32 µg/mL; with Candida albicans [23] it was 2 µg/mL; in the experiment on Candida albicans [24], more than 64 µg/mL. Also, the MIC in the experiment with Escherichia coli, with Staphylococcus aureus and with Candida albicans [25] was 50 µg/mL each time. In addition, the MFC (usually the smallest concentration meeting the test's criterion for killing the fungus) with Candida albicans [6] was 2 µg/mL (≈ 6.73 µM); in the experiment with Nakaseomyces glabratus [7], more than 64 µg/mL; in the experiment with Pichia kudriavzevii [8], 16 µg/mL (≈ 53.8 µM); with Saccharomyces cerevisiae [10] it was 0.5 µg/mL (≈ 1.68 µM). Besides, the Ratio result in experiment [11] is recorded as “>=1”. In addition, the Activity entry was “Dose-dependent effect” with Candida albicans [26]; 80% in the experiment on Candida albicans [27]; 70% in the experiment with Candida albicans [12]; 60% with Candida albicans [13]; 5% in the experiment on Candida albicans [28]; 5% in the experiment on Candida albicans [14]. In addition, in the experiment on Candida albicans [29], the Activity stood at 10%. Besides, the “growth inhibition (GI)” value with Candida albicans [17], in the experiment with Candida albicans [30] and in the experiment with Candida albicans [31] was “inactive” throughout. Moreover, the result in the experiment with Candida albicans [18] was Active. Further, in the experiment on Saccharomyces cerevisiae [32], the inhibition entry is “inactive”.

For `CCN(CC)CCCC(C)Nc1c2ccc(Cl)cc2nc2ccc(OC)cc12` (stereo unspecified) [QUINACRINE], the Activity with Candida albicans [33] is 50%.
